Measurements: ChEMBL document CHEMBL1687704, “Benzimidazole-2-pyrazole HIF Prolyl 4-Hydroxylase Inhibitors as Oral Erythropoietin Secretagogues” (ACS Med Chem Lett, 2010)

What was measured:
[1] = Plasma concentration in Balb-C mouse at 100 umol/kg, po after 6 hrs; format: ADME, organism-based
[2] = Plasma concentration in Balb-C mouse at 100 umol/kg, po after 1 hr; format: ADME, organism-based

concentration at 6 h [1]: 0.1 µM | concentration at 1 h [2]: 14 µM
SMILES: O=C(O)c1cnn(-c2nc3cc(C(F)(F)F)c(F)cc3[nH]2)c1
